This is an account of results in patent publication US12264156B2, “Compounds and pharmaceutical compositions thereof for the treatment of diseases” (GALAPAGOS NV, priority 2018, dated 2025).

A word on the pIC50: it is the negative decadic logarithm of the IC50, by convention in mol/L. A high value points to a small IC50.

Holding throughout (format): biochemical
Holding throughout (details): ADP-Glo SIK kinase assay

The target in assay [1] is T1, SIK1 (Homo sapiens, UniProt P57059).
T1 construct: purchased Carna Biosciences 02-131
The assay can be described thus: ADP-Glo kinase assay, SIK1. Put shortly: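 Enzyme–substrate mix was started with ATP and incubated 120 min at RT. ADP formed was quantified by ADP-Glo: 40 min ATP depletion, then 30 min detection reagent converting ADP to ATP for luciferase luminescence, which rises with kinase activity. Controls: 1% DMSO and 10 μM staurosporine (final).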

Assay [2] addresses T2, SIK3 (Homo sapiens, UniProt Q9Y2K2).
T2 construct: purchased SignalChem S12-11G-100
The assay can be described thus: ADP-Glo kinase assay, SIK3. The procedure, abridged:
(§1)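 Kinase reactions (enzyme-substrate mix plus ATP) ran 120 min at room temperature for each of SIK3 and SIK2. Signal came from ADP-Glo: unconsumed ATP removed (40 min), ADP reconverted and detected by luciferase/luciferin (30 min), with luminescence tracking kinase activity. 10 μM staurosporine and 1% DMSO (final) served as controls.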
On the technique in general: In ADP-Glo the light output rises with the ADP produced.

The target of assay [3] is T3, SIK2 (Homo sapiens, UniProt Q9H0K1).
T3 construct: purchased ThermoFisher Scientific PV4792
Nature of the assay: ADP-Glo kinase assay, SIK2. The procedure, abridged: as §1

Each structure is given as a SMILES string. pIC50: −log10 of the molar value.

T2 sequence (Q9Y2K2 whole entry): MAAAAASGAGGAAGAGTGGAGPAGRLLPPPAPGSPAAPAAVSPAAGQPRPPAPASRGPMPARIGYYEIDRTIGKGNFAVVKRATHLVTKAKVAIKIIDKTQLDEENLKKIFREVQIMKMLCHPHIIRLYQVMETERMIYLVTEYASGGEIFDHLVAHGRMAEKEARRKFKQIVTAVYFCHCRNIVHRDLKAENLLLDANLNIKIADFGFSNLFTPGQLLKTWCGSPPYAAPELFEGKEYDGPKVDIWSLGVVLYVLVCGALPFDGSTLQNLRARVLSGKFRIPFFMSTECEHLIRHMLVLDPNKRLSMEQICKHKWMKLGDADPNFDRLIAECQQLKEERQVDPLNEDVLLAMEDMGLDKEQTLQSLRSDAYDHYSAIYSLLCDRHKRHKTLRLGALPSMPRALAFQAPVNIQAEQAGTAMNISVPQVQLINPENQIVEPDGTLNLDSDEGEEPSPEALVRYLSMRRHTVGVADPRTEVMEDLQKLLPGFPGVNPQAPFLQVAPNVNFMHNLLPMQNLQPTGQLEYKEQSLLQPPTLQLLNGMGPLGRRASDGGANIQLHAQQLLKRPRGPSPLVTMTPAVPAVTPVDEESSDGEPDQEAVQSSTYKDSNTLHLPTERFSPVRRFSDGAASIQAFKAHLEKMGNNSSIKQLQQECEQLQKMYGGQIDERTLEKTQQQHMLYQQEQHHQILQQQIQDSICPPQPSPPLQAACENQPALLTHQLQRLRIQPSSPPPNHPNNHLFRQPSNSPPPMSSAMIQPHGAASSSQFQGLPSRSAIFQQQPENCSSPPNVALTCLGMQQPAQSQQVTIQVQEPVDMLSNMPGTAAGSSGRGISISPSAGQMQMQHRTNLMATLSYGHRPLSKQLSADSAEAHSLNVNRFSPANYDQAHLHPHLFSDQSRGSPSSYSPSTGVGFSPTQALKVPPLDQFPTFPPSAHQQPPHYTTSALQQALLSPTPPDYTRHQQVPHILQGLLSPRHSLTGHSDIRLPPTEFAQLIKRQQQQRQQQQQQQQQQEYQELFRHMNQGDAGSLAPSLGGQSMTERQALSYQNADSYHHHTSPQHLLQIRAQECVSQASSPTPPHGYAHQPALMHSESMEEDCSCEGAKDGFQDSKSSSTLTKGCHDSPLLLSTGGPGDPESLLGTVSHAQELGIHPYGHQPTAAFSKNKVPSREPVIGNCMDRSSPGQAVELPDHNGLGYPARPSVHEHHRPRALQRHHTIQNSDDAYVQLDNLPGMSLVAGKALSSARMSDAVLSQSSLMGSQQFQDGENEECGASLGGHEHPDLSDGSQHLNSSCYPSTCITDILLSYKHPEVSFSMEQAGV
T1 sequence (P57059 whole entry): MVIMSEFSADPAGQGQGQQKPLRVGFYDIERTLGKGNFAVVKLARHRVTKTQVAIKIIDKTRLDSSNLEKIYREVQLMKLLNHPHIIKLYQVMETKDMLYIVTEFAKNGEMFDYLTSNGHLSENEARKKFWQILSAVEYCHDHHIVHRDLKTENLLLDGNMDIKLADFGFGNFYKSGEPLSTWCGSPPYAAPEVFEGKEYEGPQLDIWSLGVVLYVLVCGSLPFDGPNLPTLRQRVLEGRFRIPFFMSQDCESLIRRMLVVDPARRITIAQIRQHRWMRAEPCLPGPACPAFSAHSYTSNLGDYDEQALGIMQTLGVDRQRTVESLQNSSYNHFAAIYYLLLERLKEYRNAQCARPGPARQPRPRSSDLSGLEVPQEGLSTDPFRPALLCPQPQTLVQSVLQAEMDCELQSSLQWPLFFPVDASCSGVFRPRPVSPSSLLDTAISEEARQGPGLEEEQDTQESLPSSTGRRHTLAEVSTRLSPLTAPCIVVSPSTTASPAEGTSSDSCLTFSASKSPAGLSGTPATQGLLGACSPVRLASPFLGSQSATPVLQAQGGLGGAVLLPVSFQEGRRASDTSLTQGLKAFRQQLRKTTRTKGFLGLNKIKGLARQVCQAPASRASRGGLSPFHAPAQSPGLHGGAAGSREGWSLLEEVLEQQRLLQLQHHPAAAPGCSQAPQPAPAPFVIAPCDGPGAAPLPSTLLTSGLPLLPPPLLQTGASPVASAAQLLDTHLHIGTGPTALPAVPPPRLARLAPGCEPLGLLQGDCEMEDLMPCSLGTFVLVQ
T3 sequence (Q9H0K1 whole entry): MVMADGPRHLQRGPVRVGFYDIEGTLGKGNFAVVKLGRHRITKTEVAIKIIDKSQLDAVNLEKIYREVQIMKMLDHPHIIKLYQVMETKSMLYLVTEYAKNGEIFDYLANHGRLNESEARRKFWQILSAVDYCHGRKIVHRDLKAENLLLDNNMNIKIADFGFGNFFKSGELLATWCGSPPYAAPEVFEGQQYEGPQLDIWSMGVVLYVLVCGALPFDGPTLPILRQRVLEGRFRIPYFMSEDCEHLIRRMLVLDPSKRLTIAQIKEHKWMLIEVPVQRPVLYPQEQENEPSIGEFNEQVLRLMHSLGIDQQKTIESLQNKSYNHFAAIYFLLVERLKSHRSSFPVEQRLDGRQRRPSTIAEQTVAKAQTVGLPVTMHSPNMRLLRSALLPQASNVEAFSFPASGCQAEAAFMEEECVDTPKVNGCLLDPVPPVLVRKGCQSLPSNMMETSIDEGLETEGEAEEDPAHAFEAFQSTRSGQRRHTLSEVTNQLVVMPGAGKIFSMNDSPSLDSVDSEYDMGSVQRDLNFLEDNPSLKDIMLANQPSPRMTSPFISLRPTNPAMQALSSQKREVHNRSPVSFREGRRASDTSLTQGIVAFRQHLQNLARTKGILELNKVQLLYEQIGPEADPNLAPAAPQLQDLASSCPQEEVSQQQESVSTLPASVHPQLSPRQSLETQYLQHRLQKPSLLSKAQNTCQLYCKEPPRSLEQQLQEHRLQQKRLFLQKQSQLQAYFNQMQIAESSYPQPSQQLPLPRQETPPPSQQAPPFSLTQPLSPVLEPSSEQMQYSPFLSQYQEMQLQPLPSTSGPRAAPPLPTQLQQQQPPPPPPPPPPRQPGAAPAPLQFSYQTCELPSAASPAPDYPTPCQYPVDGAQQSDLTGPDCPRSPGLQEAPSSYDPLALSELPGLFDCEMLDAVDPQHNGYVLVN

Turning to `COc1cc(-c2cnc3cc(OCC(F)(F)CN)ccn23)cc(OC(F)F)c1C(=O)NC1CC1` [compound 364, 4-[7-(3-amino-2,2-difluoro-propoxy)imidazo[1,2-a]pyridin-3-yl]-N-cyclopropyl-2-(difluoromethoxy)-6-methoxy-benzamide], the pIC50 in assay [1] was 7.00 to 8.00; in assay [2], 8.00 to 11.00; in assay [3] it was 8.00 to 11.00.

In the case of `COc1cc(-c2cnc3cc(OCCCN4CCCCC4)ccn23)cc(OC(F)F)c1C(=O)N[C@@H]1CC[C@H]1O` (racemic) [compound 359, 2-(difluoromethoxy)-N-[(1R,2R)-2-hydroxycyclobutyl]-6-methoxy-4-[7-[3-(1-piperidyl)propoxy]imidazo[1,2-a]pyridin-3-yl]benzamide/2-(difluoromethoxy)-N-[(1S,2S)-2-hydroxycyclobutyl]-6-methoxy-4-[7-[3-(1-piperidyl)propoxy]imidazo[1,2-a]pyridin-3-yl]benzamide mixture], the pIC50 was 6.30 to 7.00 in assay [1], 7.00 to 8.00 in assay [2] and 8.00 to 11.00 in assay [3].

Regarding `COc1cc(-c2cnc3cc(OC[C@H]4CCN(CCO)C4)ccn23)cc(OC(F)F)c1C(=O)NC1CC1` [Cpd 341, N-cyclopropyl-2-(difluoromethoxy)-4-[7-[[(3S)-1-(2-hydroxyethyl)pyrrolidin-3-yl]methoxy]imidazo[1,2-a]pyridin-3-yl]-6-methoxy-benzamide], the figures for the pIC50 in assay [1], in assay [2] and in assay [3] were 7.00 to 8.00, 8.00 to 11.00 and 8.00 to 11.00, respectively.

For the molecule `COc1cc(-c2cnc3cc(OCC4CCCCN4S(C)(=O)=O)ccn23)cc(OC(F)F)c1C(=O)NC1CC1` (stereo not drawn) [Cpd 129, N-cyclopropyl-2-(difluoromethoxy)-6-methoxy-4-[7-[(1-methylsulfonyl-2-piperidyl)methoxy]imidazo[1,2-a]pyridin-3-yl]benzamide], the pIC50 in assay [1], in assay [2] and in assay [3] was 8.00 to 11.00 each time.

Consider `COc1cc(-c2cnc3cc(OCCN(C)c4ccncn4)ccn23)cc(OC(F)F)c1C(=O)NC1CC1` [compound 239, N-cyclopropyl-2-(difluoromethoxy)-6-methoxy-4-[7-[2-[methyl(pyrimidin-4-yl)amino]ethoxy]imidazo [1,2-a]pyridin-3-yl]benzamide], for which the pIC50 in assay [1], in assay [2] and in assay [3] was 8.00 to 11.00 each time.

Consider `COc1cc(-c2cnc3cc(OCC4(C)CN(C)C4)ccn23)cc2c1C(=O)N(CC(F)(F)F)CC2` [Cpd 253, 6-[7-[(1,3-dimethylazetidin-3-yl)methoxy]imidazo[1,2-a]pyridin-3-yl]-8-methoxy-2-(2,2,2-trifluoroethyl)-3,4-dihydroisoquinolin-1-one], for which the results for the pIC50 in assay [1], in assay [2] and in assay [3] were under 6.30, 8.00 to 11.00 and 7.00 to 8.00, respectively.

Regarding `COc1cc(-c2cnc3cc(OC4CCCN(C)C4)ccn23)cc(OC)c1C(=O)NCC(F)(F)F` (stereo not drawn) [Cpd 5, 2,6-dimethoxy-4-[7-[(1-methyl-3-piperidyl)oxy]imidazo[1,2-a]pyridin-3-yl]-N-(2,2,2-trifluoroethyl)benzamide], the pIC50 in assay [1] was under 6.30; in assay [2], 7.00 to 8.00; in assay [3] it was 6.30 to 7.00.

Consider `COc1cc(-c2cnc3cc(OCc4ncco4)ccn23)cc(OC(F)F)c1C(=O)NC1CC1` [compound 32, N-cyclopropyl-2-(difluoromethoxy)-6-methoxy-4-[7-(oxazol-2-ylmethoxy)imidazo[1,2-a]pyridin-3-yl]benzamide], for which the pIC50 in assay [1] was 7.00 to 8.00; in assay [2], 8.00 to 11.00; in assay [3], 8.00 to 11.00.

As to `COc1cc(-c2cnc3cc(OCCCN4CCCCC4)ccn23)cc(OC(F)F)c1C(=O)N1CC(O)(CC#N)C1` [compound 355, 2-[1-[2-(difluoromethoxy)-6-methoxy-4-[7-[3-(1-piperidyl)propoxy]imidazo[1,2-a]pyridin-3-yl]benzoyl]-3-hydroxy-azetidin-3-yl]acetonitrile], the pIC50 in assay [1] was 6.30 to 7.00; in assay [2] it was 6.30 to 7.00; in assay [3] it was 7.00 to 8.00.

For the molecule `COc1cc(-c2cnc3cc(OCC(=O)N(C)C)ccn23)cc(OC(F)F)c1C(=O)NC1CC1` [compound 100, N-cyclopropyl-2-(difluoromethoxy)-4-[7-[2-(dimethylamino)-2-oxo-ethoxy]imidazo[1,2-a]pyridin-3-yl]-6-methoxy-benzamide], the pIC50 in assay [1] is 6.30 to 7.00; in assay [2], 7.00 to 8.00; in assay [3] it was 7.00 to 8.00.

In the case of `COc1cc(-c2cnc3cc(OCCCN)ccn23)cc(OC(F)F)c1C(=O)NC1CC1` [compound 115, 4-[7-(3-aminopropoxy)imidazo [1,2-a]pyridin-3-yl]-N-cyclopropyl-2-(difluoromethoxy)-6-methoxy-benzamide], the values for the pIC50 in assay [1], in assay [2] and in assay [3] were 7.00 to 8.00, 8.00 to 11.00 and 8.00 to 11.00, respectively.

As to `COc1cc(-c2cnc3cc(OCc4cn(C)cn4)ccn23)cc(OC(F)F)c1C(=O)NC1CC1` [Cpd 101, N-cyclopropyl-2-(difluoromethoxy)-6-methoxy-4-[7-[(1-methylimidazol-4-yl)methoxy]imidazo[1,2-a]pyridin-3-yl]benzamide], the figures for the pIC50 in assay [1], in assay [2] and in assay [3] were 7.00 to 8.00, 8.00 to 11.00 and 8.00 to 11.00, respectively.

Consider `COc1cc(-c2cnc3cc(OCC4CCCNC4)ccn23)cc(OC(F)F)c1C(=O)NC1CC1` (stereo not drawn) [compound 143, N-cyclopropyl-2-(difluoromethoxy)-6-methoxy-4-[7-(3-piperidylmethoxy)imidazo[1,2-a]pyridin-3-yl]benzamide], for which the negative-log IC50 (pIC50) in assay [1], in assay [2] and in assay [3] was 8.00 to 11.00 each time.

As for `COc1cc(-c2cnc3cc(OC4CC5(COC5)C4)ccn23)cc(OC(F)F)c1C(=O)NC1CC1` [compound 162, N-cyclopropyl-2-(difluoromethoxy)-6-methoxy-4-[7-(2-oxaspiro[3.3]heptan-6-yloxy)imidazo[1,2-a]pyridin-3-yl]benzamide], the pIC50 in assay [1] is 7.00 to 8.00; in assay [2], 8.00 to 11.00; in assay [3], 7.00 to 8.00.

For `COc1cc(-c2cnc3cc(OCC4(CN)CCC4)ccn23)cc(OC(F)F)c1C(=O)NC1CC1` [compound 116, 4-[7-[[1-(aminomethyl)cyclobutyl]methoxy]imidazo[1,2-a]pyridin-3-yl]-N-cyclopropyl-2-(difluoromethoxy)-6-methoxy-benzamide], the pIC50 was 7.00 to 8.00 in assay [1], 8.00 to 11.00 in assay [2] and 8.00 to 11.00 in assay [3].

Turning to `COc1cc(-c2cnc3cc(OCCCN4CCc5c(ncn5C)C4)ccn23)cc(OC(F)F)c1C(=O)NC1CC1` [compound 309, N-cyclopropyl-2-(difluoromethoxy)-6-methoxy-4-[7-[3-(1-methyl-6,7-dihydro-4H-imidazo[4,5-c]pyridin-5-yl)propoxy]imidazo[1,2-a]pyridin-3-yl]benzamide], the pIC50 was 7.00 to 8.00 in assay [1], 8.00 to 11.00 in assay [2] and 8.00 to 11.00 in assay [3].

`COc1cc(-c2cnc3cc(OCCCN4CCCCC4)ccn23)cc(OC(F)F)c1C(=O)N1CC(C#N)C1` [Cpd 357, 1-[2-(difluoromethoxy)-6-methoxy-4-[7-[3-(1-piperidyl)propoxy]imidazo[1,2-a]pyridin-3-yl]benzoyl]azetidine-3-carbonitrile]: the pIC50 in assay [1] was 7.00 to 8.00; in assay [2] it was 8.00 to 11.00; in assay [3] it was 8.00 to 11.00.

As for `COc1cc(-c2cnc3cc(OCC(C)N(C)C)ccn23)cc(OC(F)F)c1C(=O)NC1CC1` (stereo not drawn) [compound 202, N-cyclopropyl-2-(difluoromethoxy)-4-[7-[2-(dimethylamino)propoxy]imidazo[1,2-a]pyridin-3-yl]-6-methoxy-benzamide], the pIC50 is 6.30 to 7.00 in assay [1], 8.00 to 11.00 in assay [2] and 8.00 to 11.00 in assay [3].

For `COc1cc(-c2cnc3cc(OCC4CN(CCO)C4)ccn23)cc(OC(F)F)c1C(=O)NC1CC1` [Cpd 343, N-cyclopropyl-2-(difluoromethoxy)-4-[7-[[1-(2-hydroxyethyl)azetidin-3-yl]methoxy]imidazo[1,2-a]pyridin-3-yl]-6-methoxy-benzamide], the values for the negative logarithm of the IC50 (pIC50) in assay [1], in assay [2] and in assay [3] were 7.00 to 8.00, 8.00 to 11.00 and 8.00 to 11.00, respectively.

As to `COc1cc(-c2cnc3cc(OCC4(F)CNC4)ccn23)cc(OC(F)F)c1C(=O)NC1CC1` [compound 207, N-cyclopropyl-2-(difluoromethoxy)-4-[7-[(3-fluoroazetidin-3-yl)methoxy]imidazo[1,2-a]pyridin-3-yl]-6-methoxy-benzamide], the results for the negative logarithm of the IC50 (pIC50) in assay [1], in assay [2] and in assay [3] were 7.00 to 8.00, 8.00 to 11.00 and 8.00 to 11.00, respectively.

On to `CCN(CC)CCOCCOc1ccn2c(-c3cc(OC)c(C(=O)NC4CC4)c(OC(F)F)c3)cnc2c1` [compound 307, N-cyclopropyl-4-[7-[2-[2-(diethylamino)ethoxy]ethoxy]imidazo[1,2-a]pyridin-3-yl]-2-(difluoromethoxy)-6-methoxy-benzamide], for which the pIC50 in assay [1] is 7.00 to 8.00; in assay [2], 7.00 to 8.00; in assay [3], 8.00 to 11.00.

Turning to `COc1cc(-c2cnc3cc(OCc4cocn4)ccn23)cc(OC(F)F)c1C(=O)NC1CC1` [compound 60, N-cyclopropyl-2-(difluoromethoxy)-6-methoxy-4-[7-(oxazol-4-ylmethoxy)imidazo[1,2-a]pyridin-3-yl]benzamide], the pIC50 was 7.00 to 8.00 in assay [1], 8.00 to 11.00 in assay [2] and 8.00 to 11.00 in assay [3].
